The values below come from US7101878B1 (Agouron Pharmaceuticals, Inc., priority 1998, dated 2006).

The experiment deals with T1, mouse GnRH receptor (Mus musculus, UniProt Q01776).
T1 construct: expressed in transfected cells; host or cells: 293 cells
T1 sequence (Q01776 1-327): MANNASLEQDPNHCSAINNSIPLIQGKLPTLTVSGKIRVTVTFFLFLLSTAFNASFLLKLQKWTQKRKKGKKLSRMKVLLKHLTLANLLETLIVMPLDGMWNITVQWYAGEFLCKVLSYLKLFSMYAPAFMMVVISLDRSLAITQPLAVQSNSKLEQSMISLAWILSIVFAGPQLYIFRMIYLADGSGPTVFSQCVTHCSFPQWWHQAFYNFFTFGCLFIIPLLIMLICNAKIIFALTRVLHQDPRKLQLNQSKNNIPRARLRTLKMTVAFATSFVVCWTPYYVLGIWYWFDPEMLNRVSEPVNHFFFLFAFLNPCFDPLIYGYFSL
The experiment can be described thus: Radioligand binding, 125I-GnRH-A, 293 cells expressing mouse GnRH receptors. The conditions noted are these: 10 uM; read-out: % Inhib. @ 10 uM mGnRH. As to the method: All compounds were diluted in 1% DMSO (final assay concentration) in binding assay buffer. […] Reactions were terminated by rapid filtration onto 96-well Packard GF/C filters soaked in 0.1% polyethyleneimine. Filters were washed three times with PBS buffer, dried and counted on a Packard Topcount by liquid scintillation counting.
Assay conditions were identical for assessing compound activities at other species. […] IC50 values for control peptides and test compounds were calculated utilizing GraphPad Prism™ software.
The reaction mixture was vortexed and incubated for 1 min at room temperature. After one min, the mixture was vortexed and allowed to incubate for an additional minute. 2 ml of 0.5 M acetic acid/1% BSA was added to the reaction tube and the mixture was added to a C18 Sep-Pak cartridge. The cartridge was washed with subsequent washes of 5 ml H2O and 5 ml 0.5M acetic acid and then eluted with 5×1 ml of 60% CH3CN/40% 0.5M acetic acid. The eluate was diluted with 3× volume of HPLC buffer A (0.1% TFA in H2O) and loaded onto a C18 column. […] The radioactive fractions (750 ed/fraction) are collected into clean polypropylene tubes containing 100 μl of 10% BSA. Fractions were assessed for biological activity by radioligand binding.
With `Cc1cc2c(cc1Cc1ccc(C(=O)N(C)C3CCN(Cc4ccccc4)C3)o1)C(C)(C)CCC2(C)C` (centres unmarked), the inhibition at 10 µM was 98%.
The same measure for `Cc1cc2c(cc1Cc1ccc(C(=O)NC(CO)C(C)(C)C)o1)C(C)(C)CCC2(C)C` (centres unmarked): 101%.
`COc1ccc(CCN(CC(C)C)C(=O)c2ccc(Cc3cc4c(cc3C)C(C)(C)CCC4(C)C)o2)cc1OC`: the inhibition at 10 µM worked out at 90%.
Under `Cc1cc2c(cc1Cc1ccc(C(=O)N(Cc3ccncc3)Cc3ccc4c(c3)OCO4)o1)C(C)(C)CCC2(C)C` stands 91%; under `COc1cc(CN(Cc2ccncc2)C(=O)c2ccc(Cc3cc4c(cc3C)C(C)(C)CCC4(C)C)o2)ccc1OCc1ccccc1`, 64%; under `Cc1cc2c(cc1Cc1ccc(C(=O)N(Cc3cccnc3)CC(C)c3ccccc3)o1)C(C)(C)CCC2(C)C` (centres unmarked), 97%.
The same measure for `Cc1cc2c(cc1Cc1ccc(C(=O)NC(CO)CO)o1)C(C)(C)CCC2(C)C`: 22%; for `Cc1cc2c(cc1Cc1ccc(C(=O)NCC[N+](C)(C)C)o1)C(C)(C)CCC2(C)C`: 49%; for `CCOC(=O)CC(C)NC(=O)c1ccc(Cc2cc3c(cc2C)C(C)(C)CCC3(C)C)o1` (centres unmarked): 88%.
Consider `CCN(CC)CCN(CC)C(=O)c1ccc(Cc2cc3c(cc2C)C(C)(C)CCC3(C)C)o1`, for which the inhibition at 10 µM turned out to be 98%.
In the case of `Cc1cc2c(cc1Cc1ccc(C(=O)NC3CCC(C)CC3)o1)C(C)(C)CCC2(C)C` (centres unmarked), the inhibition at 10 µM is 64%.
Under `CCOC(=O)CC(C)(NC(N)=O)NC(=O)c1ccc(Cc2cc3c(cc2C)C(C)(C)CCC3(C)C)o1` (centres unmarked) stands 25%.
As for `Cc1cc2c(cc1Cc1ccc(C(=O)N(CCC#N)C3CCCC3)o1)C(C)(C)CCC2(C)C`, the inhibition at 10 µM stood at 88%.
The same measure for `COc1cc2c(cc1OC)C(c1cccc(Br)c1)N(C(=O)c1ccc(Cc3cc4c(cc3C)C(C)(C)CCC4(C)C)o1)CC2` (centres unmarked): -23%.
For the molecule `CCN(CC)CCCC(C)NC(=O)c1ccc(Cc2cc3c(cc2C)C(C)(C)CCC3(C)C)o1` (centres unmarked), the inhibition at 10 µM stood at 99%.
Under `Cc1cc2c(cc1Cc1ccc(C(=O)N3CCCC(C(N)=O)C3)o1)C(C)(C)CCC2(C)C` (centres unmarked) stands 69%.
Under `Cc1cc2c(cc1Cc1ccc(C(=O)N3CCC(N4CCCCC4)CC3)o1)C(C)(C)CCC2(C)C` stands 92%; under `Cc1cc2c(cc1Cc1ccc(C(=O)N3CCC(O)(c4ccccc4)CC3)o1)C(C)(C)CCC2(C)C`, 72%; under `Cc1cc2c(cc1Cc1ccc(C(=O)N3CCC(C#N)(c4ccccc4)CC3)o1)C(C)(C)CCC2(C)C`, 40%.
The same measure for `CCN(C(=O)c1ccc(Cc2cc3c(cc2C)C(C)(C)CCC3(C)C)o1)C1C2CCC3CC32C1c1ccccc1` (centres unmarked): 49%; for `Cc1cc2c(cc1Cc1ccc(C(=O)N3CCc4c([nH]c5ccccc45)C3)o1)C(C)(C)CCC2(C)C`: 44%.
With `Cc1cc2c(cc1Cc1ccc(C(=O)N(C)Cc3cccc4ccccc34)o1)C(C)(C)CCC2(C)C`, the inhibition at 10 µM worked out at 51%.
As to `Cc1cc2c(cc1Cc1ccc(C(=O)N3CCN(C(c4ccccc4)c4ccc(Cl)cc4)CC3)o1)C(C)(C)CCC2(C)C` (centres unmarked), the inhibition at 10 µM stood at 4%.
Take `Cc1cc2c(cc1Cc1ccc(C(=O)N3CCN(C(c4ccc(F)cc4)c4ccc(F)cc4)CC3)o1)C(C)(C)CCC2(C)C`: the inhibition at 10 µM is 16%.
The same measure for `Cc1cc2c(cc1Cc1ccc(C(=O)N3CCCC(C(=O)NC(c4ccccc4)c4ccccc4)C3)o1)C(C)(C)CCC2(C)C` (centres unmarked): 9%; for `Cc1cc2c(cc1Cc1ccc(C(=O)N(Cc3ccccc3)Cc3ccccn3)o1)C(C)(C)CCC2(C)C`: 98%.
Under `CCOC(=O)C1CCCCN1C(=O)c1ccc(Cc2cc3c(cc2C)C(C)(C)CCC3(C)C)o1` (centres unmarked) stands 94%.
Regarding `Cc1cc2c(cc1Cc1ccc(C(=O)N3CCC(O)(Cc4ccccc4)CC3)o1)C(C)(C)CCC2(C)C`, the inhibition at 10 µM is 67%.
The same measure for `COC(=O)C1CN(C(=O)c2ccc(Cc3cc4c(cc3C)C(C)(C)CCC4(C)C)o2)CC(C)C1=O` (centres unmarked): 26%; for `CCOC(=O)C1CN(C(=O)c2ccc(Cc3cc4c(cc3C)C(C)(C)CCC4(C)C)o2)CCC1=O` (centres unmarked): 71%; for `Cc1cc2c(cc1Cc1ccc(C(=O)N3CCCCC3C[C@H]3CCCN3C)o1)C(C)(C)CCC2(C)C` (some centres unmarked): 28%.
Under `Cc1cc2c(cc1Cc1ccc(C(=O)N3CCN(C(=O)OC(C)(C)C)CC3)o1)C(C)(C)CCC2(C)C` stands 90%; under `Cc1cc2c(cc1Cc1ccc(C(=O)N3CCCCC3CCN3CCCCC3)o1)C(C)(C)CCC2(C)C` (centres unmarked), 103%; under `CCC1CCC(C)N(C(=O)c2ccc(Cc3cc4c(cc3C)C(C)(C)CCC4(C)C)o2)C1` (centres unmarked), 95%.
The same measure for `Cc1cc2c(cc1Cc1ccc(C(=O)N3CCN(CCN4CCOCC4)CC3)o1)C(C)(C)CCC2(C)C`: 73%; for `Cc1cc2c(cc1Cc1ccc(C(=O)N3CCN(CCCN(C)C)CC3)o1)C(C)(C)CCC2(C)C`: 96%.
In the case of `C#CCN(CCC)CCN1CCN(C(=O)c2ccc(Cc3cc4c(cc3C)C(C)(C)CCC4(C)C)o2)CC1`, the inhibition at 10 µM was 101%.
On to `Cc1cc2c(cc1Cc1ccc(C(=O)N3CCN(CCN(C)C)CC3)o1)C(C)(C)CCC2(C)C`, for which the inhibition at 10 µM was found to be 98%.
Under `Cc1cc2c(cc1Cc1ccc(C(=O)N3CCN(CC(=O)N(C)c4ccccc4)CC3)o1)C(C)(C)CCC2(C)C` stands 103%; under `C=CCN1CCN(C(=O)c2ccc(Cc3cc4c(cc3C)C(C)(C)CCC4(C)C)o2)CC1`, 95%; under `Cc1cc2c(cc1Cc1ccc(C(=O)NC(C(C)C)C(C)C)o1)C(C)(C)CCC2(C)C`, 58%.
`CCCCNC(=O)c1ccc(Cc2cc3c(cc2C)C(C)(C)CCC3(C)C)o1`: the inhibition at 10 µM is 90%.
Under `Cc1cc2c(cc1Cc1ccc(C(=O)N(Cc3ccccc3Cl)CC(c3ccccc3)c3ccccc3)o1)C(C)(C)CCC2(C)C` stands 8%.
The same measure for `Cc1ccc(CN(CCCN2CCOCC2)C(=O)c2ccc(Cc3cc4c(cc3C)C(C)(C)CCC4(C)C)o2)cc1`: 103%; for `CSc1ccc(CN(CCc2ccccn2)C(=O)c2ccc(Cc3cc4c(cc3C)C(C)(C)CCC4(C)C)o2)cc1`: 75%; for `CCC(COC)NC(=O)c1ccc(Cc2cc3c(cc2C)C(C)(C)CCC3(C)C)o1` (centres unmarked): 98%.
For `Cc1cc2c(cc1Cc1ccc(C(=O)N(Cc3ccc(O)cc3)C3CCN(Cc4ccccc4)C3)o1)C(C)(C)CCC2(C)C` (centres unmarked), the inhibition at 10 µM turned out to be 82%.
Under `Cc1cc2c(cc1Cc1ccc(C(=O)N(CCCN3CCN(C)CC3)Cc3ccc(Cl)c(Cl)c3)o1)C(C)(C)CCC2(C)C` stands 104%; under `Cc1cc2c(cc1Cc1ccc(C(=O)N(CCCN3CCN(C)CC3)Cc3ccc(OCCCN(C)C)cc3)o1)C(C)(C)CCC2(C)C`, 100%; under `Cc1cc2c(cc1Cc1ccc(C(=O)N(CCCO)Cc3ccc(Cl)cc3Cl)o1)C(C)(C)CCC2(C)C`, 94%.
Consider `CCc1ccc(CN(CCCO)C(=O)c2ccc(Cc3cc4c(cc3C)C(C)(C)CCC4(C)C)o2)cc1`, for which the inhibition at 10 µM is 88%.
Under `Cc1cc2c(cc1Cc1ccc(C(=O)N(CCCO)CCC(C)CCCC(C)(C)O)o1)C(C)(C)CCC2(C)C` (centres unmarked) stands 99%.
`Cc1cc2c(cc1Cc1ccc(C(=O)N3Cc4ccccc4CC3CO)o1)C(C)(C)CCC2(C)C` (centres unmarked): the inhibition at 10 µM came out at 61%.
